One assay deals with P. putida. The assay can be described thus: SPOTi assay, P. putida. The class given is cell-based, Pseudomonas putida. To be noted: Pseudomonas putida, LB, 37°C overnight.
Assay [1] deals with murine macrophage cell line RAW264.7. The assay can be described thus: Eukaryotic cell toxicity assay, RAW264.7. The class given is cell-based. To be noted: Mus musculus, read-out: GIC50 RAW264.7.
For a further assay, the system named is E. coli K12. Briefly: SPOTi assay, E. coli. The class given is cell-based, Escherichia coli. Particulars: Escherichia coli, K12, LB, 37°C overnight.
The subject of a further assay is M. aurum. The assay can be described thus: SPOTi assay, M. aurum. The class given is cell-based, Mycobacterium aurum. To be noted: for MIC: Mycolicibacterium aurum.
In the next assay the test system is M. tuberculosis H37Rv. Briefly: SPOTi growth inhibition assay, M. tuberculosis H37Rv. The class given is cell-based. Particulars: for MIC: Mycobacterium tuberculosis, H37RV.
A further assay relates to M. bovis BCG Pasteur. The assay can be described thus: microbe, parasite or virus in culture. The class given is cell-based. To be noted: for MIC: Mycobacterium tuberculosis variant bovis BCG, BCG; for MIC M. bovis BCG: SPOTi, 2 weeks at 37°C.
For assay [2], the target named is MurE (Rv2158c) protein of M. tuberculosis H37Rv (Mycobacterium tuberculosis, UniProt P9WJL3). Briefly: Mtb-MurE HPLC inhibition assay. The class given is biochemical. To be noted: HPLC assay, 37°C 30 min.
Another assay relates to R. equi RHA1. The assay can be described thus: SPOTi assay, R. equi RHA1. The class given is cell-based, Rhodococcus equi. To be noted: Rhodococcus (subgen. Prescottella) equi, RHA1, LB, 30°C 48 h.
Another assay concerns M. smegmatis mc^2155. The assay can be described thus: SPOTi assay, M. smegmatis. The class given is cell-based, Mycobacterium smegmatis. To be noted: for MIC: Mycolicibacterium smegmatis, MC^2155.
The mark [3] stands for this setting: RAW264.7, value in square brackets.
Where [4] appears, read: murine macrophage cell line RAW264.7.
The mark [5] stands for this setting: SPOTi, value in square brackets, read-out: MIC M. tuberculosis H37Rv.
Setting [6] is: 336 h, read-out: MIC M. bovis BCG, SPOTi, 2 weeks at 37°C.
[7] abbreviates: read-out: MIC M. bovis BCG, SPOTi, value in square brackets.

Converted amounts (≈) assume the structure as drawn. Read-outs that look alike come from different tables or passages of the source. Some results are limits rather than exact numbers.

Sequence of MurE (Rv2158c) protein of M. tuberculosis H37Rv (P9WJL3 whole entry, looked up): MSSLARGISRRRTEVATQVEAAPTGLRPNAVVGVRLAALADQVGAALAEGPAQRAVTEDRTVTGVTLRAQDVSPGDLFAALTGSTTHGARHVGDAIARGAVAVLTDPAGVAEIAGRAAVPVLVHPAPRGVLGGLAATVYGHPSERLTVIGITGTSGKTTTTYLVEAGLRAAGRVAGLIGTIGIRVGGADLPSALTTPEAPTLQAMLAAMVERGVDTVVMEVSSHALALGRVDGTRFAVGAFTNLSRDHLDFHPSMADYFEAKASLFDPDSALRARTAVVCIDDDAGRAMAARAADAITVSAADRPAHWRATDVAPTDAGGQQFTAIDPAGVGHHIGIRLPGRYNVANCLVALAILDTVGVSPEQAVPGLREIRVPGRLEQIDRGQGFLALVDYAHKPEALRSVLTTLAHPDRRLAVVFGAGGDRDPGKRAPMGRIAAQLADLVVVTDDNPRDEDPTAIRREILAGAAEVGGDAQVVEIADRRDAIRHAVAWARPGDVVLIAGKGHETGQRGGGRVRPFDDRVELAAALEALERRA

With `CCCCCCCCCC1NCCc2cc(O)c(O)cc21` (centres unmarked) [Compound 24], the MIC against P. putida was > 100 µg/mL; against E. coli K12 it was > 100 µg/mL; against M. aurum, 100 µg/mL (≈ 343 µM); with M. tuberculosis H37Rv (336 h, read-out: MIC M. tuberculosis H37Rv, SPOTi, 2 weeks at 37°C) it was 80 µg/mL; with M. tuberculosis H37Rv (setting [5]) it was 206 µM; in the assay on M. bovis BCG Pasteur (setting [6]), > 60 µg/mL. Also, the MIC was 275 µM in the assay with M. bovis BCG Pasteur (setting [7]), > 100 µg/mL in the assay with R. equi RHA1 and 100 µg/mL (≈ 343 µM) against M. smegmatis mc^2155. In addition, the IC50 in assay [1] (setting [3]) came to 5.5 µM; in assay [1] (setting [4]), 1.6 µg/mL; in assay [2] it was 186 µM. In addition, in the assay with M. tuberculosis H37Rv (SPOTi, 2 weeks at 37°C), the “MIC M. tuberculosis H37Rv” value came to 60 µg/mL (≈ 206 µM). Further, the “MIC M. bovis BCG” value with M. bovis BCG Pasteur was 80 µg/mL (≈ 275 µM).
`Oc1cc2c(cc1O)C(Cc1ccc3c(c1)OCO3)NCC2` (centres unmarked) [Compound 20]: the MIC against P. putida was > 100 µg/mL; against E. coli K12 it was > 100 µg/mL; in the assay with M. aurum, > 100 µg/mL; in the assay on M. bovis BCG Pasteur (setting [6]), > 60 µg/mL; in the assay with M. bovis BCG Pasteur (setting [7]) it was 334 µM; with R. equi RHA1, > 100 µg/mL. For the same compound, in the assay on M. smegmatis mc^2155, the MIC is > 100 µg/mL. In addition, the results for the IC50 in [1] (setting [3]), in assay [1] (setting [4]) and in assay [2] were 602 µM, 190 µg/mL and 237 µM, respectively. For the same compound, in the assay on M. aurum, the “MIC M. aurum” value was >100 µg/mL. Besides, the “MIC M. bovis BCG” value in the assay with M. bovis BCG Pasteur came to 100 µg/mL (≈ 334 µM). Further, in the assay with M. smegmatis mc^2155, the “MIC M. smegmatis mc^2155” value was >100 µg/mL.
Regarding `COc1ccc(Cl)c2c1C(Cc1ccc3c(c1)OCO3)NCC2` (centres unmarked) [Compound 36], the MIC is > 100 µg/mL in the assay on P. putida; > 100 µg/mL against E. coli K12; 60 µg/mL (≈ 181 µM) in the assay with M. aurum; 60 µg/mL in the assay with M. tuberculosis H37Rv (336 h, SPOTi, 2 weeks at 37°C, read-out: MIC M. tuberculosis H37Rv); 181 µM in the assay with M. tuberculosis H37Rv (setting [5]); 40 µg/mL in the assay with M. bovis BCG Pasteur (setting [6]). Further, the MIC was 121 µM in the assay with M. bovis BCG Pasteur (setting [7]), > 100 µg/mL in the assay with R. equi RHA1 and 60 µg/mL (≈ 181 µM) against M. smegmatis mc^2155. The results for the IC50 in [1] (setting [3]) and in [1] (setting [4]) were 124 µM and 41 µg/mL, respectively.
